The values below come from patent US12156912B2, “Methods and compositions for inhibiting diseases of the central nervous system” (Board of Regents of the University of Nebraska, priority 2012, dated 2024).

Square brackets hold non-standard residues; d marks the D form. Ends that are not written are not given here. Tyr(3-NO2) = N[C@@H](Cc1ccc(O)c([N+](=O)[O-])c1)C(=O)O

This assay relates to splenocytes of mice immunized with N-4YSyn. In words: 3H-thymidine in vitro proliferation assay of splenocytes stimulated with antigen or test peptide. Format: cell-based, mice (C57BL/6J). As to conditions: splenocytes from N-4YSyn/CFA immunized mice; 30 μg/ml antigen or peptide, 5 days; vs media control; no response in PBS immunized mice. Here is the method:
B6 (H-2^b) mice were immunized with PBS or 50 μg of N-4YSyn (nitrated C-terminal 40 amino acid α-Syn fragment) in complete Freund's adjuvant (CFA) administered subcutaneously (s.c.). Seven days after primary immunization, mice were boosted with another 50 μg of antigen emulsified in IFA (Sigma-Aldrich). Seven days following their final immunizations, donor mice were sacrificed and single cell suspensions were prepared from the spleen.
Samples of pooled splenocytes were tested for their proliferative capacity by ^3H-thymidine incorporation after stimulation with either immunizing antigen or test peptide. Splenocytes were plated at a density of 2×10^6 cells/ml complete RPMI tissue culture media (RPMI 1640 supplemented with 10% fetal bovine serum (FBS), 2 mM L-glutamine, 10 mM HEPES, 1 mM sodium pyruvate, 1× nonessential aa, 55 μM 2-mercaptoethanol, 100 U/ml penicillin, and 100 μg/ml streptomycin (Mediatech Inc., Herndon, VA)). Splenocytes from PBS or N-4YSyn immunized mice were stimulated with 0 or 30 μg/ml of immunizing antigen N-4YSyn or 30 μg/ml of the non-nitrated or nitrated peptide indicated, and cultured at 37° C. for 5 days. Cells were pulsed with […] ^3H-thymidine/well for the final 18 hours of culture, harvested onto glass fiber plates, and counted by β-scintillation spectrometry (TopCount, Packard-PerkinElmer Instruments, Wellesley, MA).
To test immune responses to particular epitopes within N-α-Syn, mice were immunized with N-4YSyn or PBS emulsified in complete Freund's adjuvant (CFA). Seven days following the initial immunization, mice were boosted with their respective immunogens emulsified in incomplete Freund's adjuvant (IFA). Seven days later, mice were sacrificed and splencoytes were tested for antigen-specific T cell proliferative responses to N-4YSyn or peptide epitope (nitrated or non-nitrated; Table 1).
For the sequence “GILEDMPVDPGSEAY (GILEDMPVDPGSEA[Tyr(3-NO2)]; listed as Mus musculus) [Peptide 23, murine α-synuclein positions 111-125, nitrated tyrosine]”, the “proliferative response (3H-thymidine incorporation)” value (shortened to “proliferative response”) was “significant proliferative response”.

As for “GYPQEGILEDMPVDP (G[Tyr(3-NO2)]PQEGILEDMPVDP; listed as Mus musculus) [Peptide 22, murine α-synuclein positions 106-120, nitrated tyrosine]”, the “proliferative response” value is listed as “significant proliferative response”.

In the case of “MPVDPGSEAYEMPSE (MPVDPGSEA[Tyr(3-NO2)]EMPSE; listed as Mus musculus) [Peptide 24, murine α-synuclein positions 116-130, nitrated tyrosine]”, the “proliferative response” value was “significant proliferative response”.

Turning to “GSEAYEMPSEEGYQD (GSEA[Tyr(3-NO2)]EMPSEEG[Tyr(3-NO2)]QD; listed as Mus musculus) [Peptide 25, murine α-synuclein positions 121-135, nitrated tyrosines]”, the “proliferative response” value was “significant proliferative response”.
